{"source": "patent US7872015B2", "about": "“Methods involving PDE4, compositions, and the screening thereof, for the treatment of degenerative ocular pathologies” (Exonhit Therapeutics SA, priority 2003, dated 2011)", "key": {"[1]": {"molecular_target": "T1, PBR (Homo sapiens, UniProt P30536)", "T1 construct": "endogenous in cells; host or cells: HeLa cells", "T1 sequence (P30536 whole entry)": "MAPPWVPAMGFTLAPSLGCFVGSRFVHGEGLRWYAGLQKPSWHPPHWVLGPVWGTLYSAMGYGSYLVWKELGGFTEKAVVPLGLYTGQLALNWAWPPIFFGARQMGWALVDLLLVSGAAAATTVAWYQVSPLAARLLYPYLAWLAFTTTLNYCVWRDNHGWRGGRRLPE", "assay": "Mitochondrial-specific rhodamine 1,2,3 fluorescence in HeLa cells expressing the PBR", "assay_type": "cell-based", "excerpt": "The PBR is situated between the inner and outer mitochondrial membrane. It forms part of the transition pore complex, which participates in regulating mitochondrial flux by opening the mitochondrial pore. There exist molecules which display high affinity for PBR, particularly Ro5-4864 and PK11195.\nBy monitoring mitochondrial-specific fluorescence of rhodamine 1,2,3, the effects of PBR-specific ligands and those of etazolate could be followed."}, "[2]": {"system": "retinal explants from rd1 mice", "assay": "Retinal explant cultures from rd1 mice, histopathology of photoreceptors", "assay_type": "cell-based", "conditions": "2 μM etazolate, versus untreated explants", "procedure": "This example describes the effects of a PDE4 inhibitor on retina of rd1 mice, which are characterized by a loss of visual cells starting two weeks after birth. For each etazolate concentration (0.02 μM, 0.2 μM, 2 μM and 20 μM), six retinal explants from rd1 mice were cultured for 21 days. The culture was started on postnatal day 7 in medium free of bovine fetal serum but containing etazolate at the indicated concentration. Six retinal explants from the same animals were used as controls for the treated explants. In this case, the explants were grown in culture medium alone or in culture medium containing the vehicle used for etazolate. For both conditions (control and treatment), the culture medium was changed every two days. After 21 days of culture, the explants were fixed, sectioned and labelled for histopathologic studies. Explants from untreated rd1 mice (postnatal day 28) lost most of their photoreceptors in culture, and the presence of an increase in photoreceptors was then detected by counting the remaining photoreceptors."}, "[3]": {"assay": "Escalating single oral dose study in healthy male volunteers: tolerability", "assay_type": "in vivo, humans", "conditions": "oral capsules, single doses 0.5-20 mg", "procedure": "(§1) In this study, increasing doses of etazolate (0.5, 1, 2, 5, 10 and 20 mg) were administered orally in the form of 0.5 and 5 mg capsules to different and sequential groups of eight young healthy male volunteers. This was a single-center, double-blind study in which two of the eight subjects received a placebo.\n(§2) The following parameters were evaluated: clinical tolerability (adverse effects, clinical signs, changes in blood pressure or heart rate), electrocardiographic tolerability (recording of the ECG) and biological tolerability (hematology and blood biochemistry, urinalysis) for 24 hours after dosing. The product was assayed in plasma at different times before and after administration in each subject (0.25-0.50-1.00-1.50-2.00-3.00-4.00-5.00-6.00-8.00-10.00-12.00 and 24.00 hours). The product was also assayed in urine collected before and after administration (4, 4-8,8-12 and 12-24 hours)."}, "[4]": {"system": "cerebellar granular cells", "assay": "Excitotoxicity protection in primary cerebellar granular cells (MTT test)", "assay_type": "cell-based, rat", "conditions": "etazolate three hours before toxic agents, 6-hour incubation", "procedure": "In this example, cerebellar granular neurons, cortical neurons and ventral spinal cord cells from rats were cultured according to methods known to those skilled in the art. Seven-day-old Wistar rats were decapitated and brains were dissected. The meninges were removed and the tissue was then cut into small pieces and trypsinized for 15 minutes at 37° C. Cells were dissociated by trituration, then placed in culture at a density of 300,000 cells per cm^2 in Eagle basic medium supplemented with 10% fetal calf serum and 2 mM glutamine. The next day, 10 μM ARA-C, an antimitotic agent, was added to prevent proliferation of glial cells. The cells were treated on day 9 of culture with the inhibitor compound etazolate, three hours before adding the toxic agents 50 μM kainate or 100 μM N-methyl-D-aspartate in the presence of 10 μM D-serine. Immediately before adding the toxic agents, 8-bromo-cAMP was added. All treatments were done at least in duplicate and in at least two different cultures. After a 6-hour incubation, toxicity was measured by the MTT test. The results were normalized to the untreated mean and analyzed statistically with a Wilcoxon test. The level of significance was p≦0.05. Toxicity was measured with the MTT test. […] Absorbance at 550 nm was measured and the percentage viability was calculated."}, "[5]": {"system": "ventral spinal cord cells", "assay": "Excitotoxicity protection in primary ventral spinal cord cells (MTT test)", "assay_type": "cell-based, rat", "conditions": "100 μM NMDA + 10 μM D-serine, 3-hour incubation", "procedure": "(§3) In this example, cerebellar granular neurons, cortical neurons and ventral spinal cord cells from rats were cultured according to methods known to those skilled in the art.\nCells were isolated from 14-day-old Wistar rat embryos. On arrival, gestating rats were sacrificed by carbon dioxide intoxication.\nThe chain of embryos was removed and placed in a dish containing PBS.\nThe spinal cord of each embryo was dissected and the ventral cord was separated from the dorsal cords. The ventral cords were then trypsinized at 37° C. for 20 minutes. Trypsinization was stopped by addition of Leibovitz 15 medium, 20% horse serum, supplement N2 (1×), 20% glucose (3.2 mg/ml), 7.5% bicarbonate (1.8 mg/ml) and 2 mM L-glutamine. The cells were dissociated by trituration. Clumps of tissue were removed and the dissociated cells were then quantified by trypan blue staining. The cells were seeded at 250,000 cells per cm^2 in neurobasal medium containing 2% horse serum, supplement B27 (1×), and 2 mM glutamine. […] After a 3-hour incubation with NMDA/D-serine as toxic agent and a 1-hour incubation with kainate, toxicity was measured by the MTT test. The results were normalized to the untreated mean and analyzed statistically with a Wilcoxon test with p<0.05.\n(§4) Toxicity was measured with the MTT test. […] Absorbance at 550 nm was measured and the percentage viability was calculated."}, "[6]": {"system": "cortical neurons", "assay": "Excitotoxicity protection in primary cortical neurons (MTT test)", "assay_type": "cell-based, rat", "conditions": "etazolate 1 hour before toxic agents, 6-hour incubation", "procedure": "as §3\nWistar rat embryos aged 16 days were removed and the cortex dissected. After trypsination at 37° C. for 25 minutes, the cells were dissociated by trituration, then seeded in minimum essential medium supplemented with 10% horse serum, 10% fetal calf serum and 2 mM glutamine, at a density of 300,000 cells per cm^2. After 4 days of culture, half the medium was replaced with minimum essential medium supplemented with 5% horse serum and 2 mM glutamine. The same day, the antimitotic 5-fluoro-2-deoxyuridine (10 μM) was added. After 7 and 11 days of culture, half the medium was replaced with conditioned medium composed of MEM supplemented with 5% horse serum and 2 mM glutamine; prior to use this medium was passed overnight on a layer of cortical astrocytes. On day 14, the cells were treated with the inhibitor compound etazolate, 1 hour before adding the toxic agents 50 μM kainate or 20 μM N-methyl-D-aspartate in the presence of 10 μM D-serine. […] After a 6-hour incubation, toxicity was measured by the MTT test. The results were normalized to the untreated mean and analyzed statistically with a Wilcoxon test. […]\nas §4"}, "[7]": {"assay": "Escalating single oral dose study in healthy male volunteers: plasma assays", "assay_type": "in vivo", "conditions": "humans, at high doses", "procedure": "as §1, §2"}}, "data": [{"smiles": "CCC(C)N(C)C(=O)c1cc2ccccc2c(-c2ccccc2Cl)n1", "note": "(stereo not shown) [PK11195]", "values": [{"measurement": "mitochondrial-specific fluorescence of rhodamine 1,2,3", "setting": "[1]", "result": "loss of fluorescence"}]}, {"smiles": "CCOC(=O)c1cnc2c(cnn2CC)c1NN=C(C)C", "note": "[etazolate]", "values": [{"measurement": "preservation of photoreceptors (photoreceptor layer)", "setting": "[2]; rd1 retinal explants cultured 21 days from postnatal day 7", "result": "much better preserved"}, {"measurement": "number of picnotic cells", "setting": "[2]; rd1 retinal explants cultured 21 days", "result": "marked reduction"}, {"measurement": "side effects", "setting": "[3]", "result": "did not cause any side effects"}, {"measurement": "tolerability (clinical, electrocardiographic, biological)", "setting": "[3]; 24 hours after dosing", "result": "well tolerated"}, {"measurement": "protective effect on kainate-induced toxicity", "setting": "[4]; 50 μM kainate", "result": 57, "unit": "%"}, {"measurement": "protective effect on NMDA/serine-induced toxicity", "setting": "[4]; 100 μM N-methyl-D-aspartate + 10 μM D-serine", "result": 60, "unit": "%"}, {"measurement": "mitochondrial-specific fluorescence of rhodamine 1,2,3", "setting": "[1]", "result": "induced the same loss of fluorescence as the PBR-specific ligands"}, {"measurement": "protective effect on NMDA/serine-induced toxicity", "setting": "[5]", "result": 36, "unit": "%"}, {"measurement": "protective effect on NMDA/serine-induced toxicity", "setting": "[6]; 20 μM N-methyl-D-aspartate + 10 μM D-serine", "result": 33, "unit": "%"}, {"measurement": "protective effect on kainate-induced toxicity", "setting": "[6]; 50 μM kainate", "result": 25, "unit": "%"}, {"measurement": "absorption (plasma assays)", "setting": "[7]", "result": "good"}]}, {"smiles": "CN1C(=O)CN=C(c2ccc(Cl)cc2)c2cc(Cl)ccc21", "note": "[Ro5-4864]", "values": [{"measurement": "mitochondrial-specific fluorescence of rhodamine 1,2,3", "setting": "[1]", "result": "loss of fluorescence"}]}]}
